B1: semaphorin-3A: Recombinant semaphorin-3A purchased from R&D Systems (protein, UniProt Q14563 21-771, looked up)
Semaphorin-3A: NYQNGKNNVPRLKLSYKEMLESNNVITFNGLANSSSYHTFLLDEERSRLYVGAKDHIFSFDLVNIKDFQKIVWPVSYTRRDECKWAGKDILKECANFIKVLKAYNQTHLYACGTGAFHPICTYIEIGHHPEDNIFKLENSHFENGRGKSPYDPKLLTASLLIDGELYSGTAADFMGRDFAIFRTLGHHHPIRTEQHDSRWLNDPKFISAHLISESDNPEDDKVYFFFRENAIDGEHSGKATHARIGQICKNDFGGHRSLVNKWTTFLKARLICSVPGPNGIDTHFDELQDVFLMNFKDPKNPVVYGVFTTSSNIFKGSAVCMYSMSDVRRVFLGPYAHRDGPNYQWVPYQGRVPYPRPGTCPSKTFGGFDSTKDLPDDVITFARSHPAMYNPVFPMNNRPIVIKTDVNYQFTQIVVDRVDAEDGQYDVMFIGTDVGTVLKVVSIPKETWYDLEEVLLEEMTVFREPTAISAMELSTKQQQLYIGSTAGVAQLPLHRCDIYGKACAECCLARDPYCAWDGSACSRYFPTAKRRTRRQDIRNGDPLTHCSDLHHDNHHGHSPEERIIYGVENSSTFLECSPKSQRALVYWQFQRRNEERKEEIRVDDHIIRTDQGLLLRSLQQKDSGNYLCHAVEHGFIQTLLKVTLEVIDTEHLEELLHKDDDGDGSKTKEMSNSMTPSQKVWYRDFMQLINHPNLNTMDEFCEQVWKRDRKQRRQRPGHTPGNSNKWKHLQENKKGRNRRTHEFERAPRSV

What was measured:
SQ20B cells [1] = assay: In vitro growth inhibition assay; assay type: cell-based, human; conditions: growth at day 6
Procedure: (§1) FIG. 5. Modulation of the galectin-1/semaphorin-3A/neuropilin system in SQ20B cells. A—Effects of galectin-1 (Gall), semaphorin-3A (Sema3A), lactose, with or without four different concentrations of OTX-008 on SQ20B growth at day 6. Embedded figure: Proliferation assay of SQ20B and SQ-shGAL1. B—In vitro matrigel invasion assay of SQ20B exposed to […] galectin-1, 1 μg/ml semaphorin-3A, 200 ng/ml lactose or 10 μM UO126 with or without 3 μM OTX-008. Embedded figure: In vitro matrigel invasion assay of SQ20B and SQ-shGAL1. Invasion was quantified after 48 h by counting the average number of invaded cells.
For proliferation assay, cells were seeded in 96-well tissue culture plates at a density of 1.5×10^3 cells/well. MTT assay was conducted daily to determine the number of viable cells in untreated control and treated group. Growth inhibition curves were plotted as a percentage of cells for each experimental condition.
(§2) Galectin-1 may form extracellular lattices counteracting the inhibitory properties of semaphorin-3A on neuropilin-1, eventually leading to the modulation of the vascular endothelial growth factor (VEGFR) and platelet derived growth factor (PDGFR) receptors, fibronectin, and laminin activity SQ20B cells expressed significant mRNA and protein levels of semaphorin-3A and neuropilin-1, PDGFRa&(, VEGF A-D, and VEGFR1-3 (Supplementary FIG. 2A). Thus, SQ20B cells were selected to evaluate the effects of OTX-008 on galectin-1/semaphorin-3A interactions. No difference between SQ20B cells growing in plastic or fibronectin- and laminin-coated plates. […] Galectin-1 and semaphorin-3A induced invasion was inhibited by OTX-008 mimicking the effects of lactose in this model.

SQ20B cells [2] = assay: Matrigel invasion assay; assay type: cell-based, human; conditions: for invasion of SQ20B cells, agent alone: 48 h, 1 g/ml galectin-1, 1 μg/ml semaphorin-3A, 10 μM UO126, 3 μM OTX-008
Procedure: as §1
8 μm membranes were coated with Matrigel (50 μg). The inserts were placed within a 24-well chamber containing 0.6 ml of RPMI 1640 medium with 20% fetal bovine serum as chemoattractant. 10^5 cells were seeded into the inserts suspended in 0.3 ml of serum-free RPMI. After incubation for 48 h at 37° C., the upper surface of the filter was scraped to remove non-invasive cells. Invasive cells were fixed and stained with a Diff Quik detection Kit (Dade Behring, Paris, France). For quantification, the average number of invading cells per field was assessed by counting 9 random fields under a light microscope (400×).
as §2

galectin-1 = biological target: T1, galectin-1 (Homo sapiens, UniProt P09382); assay: Western blot of galectin-1 in SQ20B cells; assay type: cell-based; conditions: Bortezomib 10 nM with 3 μM OTX-008, 48 h
T1 construct: Western Blot of galectin-1 on SQ20B cells treated with 3 μM OTX-008 for 24 h, 48 h and 72 h; endogenous in cells; host or cells: SQ20B (ATCC)
Procedure: FIG. 3. Effects of OTX-008 on galectin-1 expression and localization. A—Western Blot of galectin-1 on SQ20B cells treated with 3 μM OTX-008 for 24 h, 48 h and 72 h. B and C—Immunofluorescence of galectin-1 on SQ20B cells treated with 3 μM OTX-008 for 24 and 48 h. B—OTX-008 treatment decreases galectin-1 immunostaining in SQ20B cells. C—Galectin-1 translocates into the nucleus after OTX-008 exposure. D—Western Blot of p-AKTser473, AKT, p-S6, p-ERK1/2, ERK and p-PKCα in SQ20B cells treated with 3 μM OTX-008 for 10 min, 1 h, 2 h, 5 h and 24 h.
FIG. 4. OTX-008-induced galectin-1 oxydation and degradation by the proteosome system A—Western Blot of galectin-1 on SQ20B cells treated 48 h with 10 μM N-acetylcysteine (NAC), 55 μM β-mercaptoethanol (βME), 1 mM Tempol and 10 μM co-enzyme Q10 (Q10) with or without 3 μM OTX-008. B—Western Blot of galectin-1 on SQ20B cells treated 48 h with 3 μM OTX-008, pretreated 2 h with proteasome inhibitor Bortezomib (10 nM) and then treated 48 h with 3 μM OTX-008 (BTZ—OTX-008) or treated 48 h with 10 nM Bortezomib+3 μM OTX-008 (BTZ+OTX-008).
Cells were lysed in buffer containing 50 mM HEPES (pH 7.6), 150 mM NaCl, 1% Triton X-100, 2 mM sodium vanadate, 100 mM NaF, and 0.4 mg/ml phenylmethylsulfonyl fluoride. Equal amounts of protein (30 μg/lane) were subjected to SDS-PAGE and transferred to nitrocellulose membranes. […]

cdc2 (tyrosine 15) = assay: Western blot of phosphorylated cdc2 in SQ20B; assay type: cell-based, human; conditions: pretreated 2 h with UO126 then OTX-008 72 hours
Procedure: Cells were lysed in buffer containing 50 mM HEPES (pH 7.6), 150 mM NaCl, 1% Triton X-100, 2 mM sodium vanadate, 100 mM NaF, and 0.4 mg/ml phenylmethylsulfonyl fluoride. Equal amounts of protein (30 μg/lane) were subjected to SDS-PAGE and transferred to nitrocellulose membranes. Membranes were blocked with 5% milk in 0.05% Tween 20/phosphate-buffered saline and then incubated with the primary antibody overnight. Membranes were then washed and incubated with the secondary antibody conjugated to horseradish peroxidase. Bands were visualized by using the enhanced chemiluminescence Western blotting detection system. Densitometric analysis was performed under conditions that yielded a linear response. The following antibodies were used: anti-p-cdc2 (tyr15), anti-p-wee1 (ser642), anti-p-p44/42 MAPK (thr202/tyr204), anti-p44/42, anti-p-AKT (ser473), anti-AKT, anti-p-S6 (ser235/236) (Cell Signaling, Saint Quentin Yvelines, France), anti-p-PKCα (ser657) (BD Biosciences, Le-Pont-de-Claix, France) and anti-galectin-1 (Abcam, Cambridge, Mass., USA). All antibodies were used at a 1:1000 dilution.
To study the mechanism of OTX-008-induced inhibition of cell proliferation, the effect of OTX-008 on cell cycle in SQ20B cells was examined (FIG. 5B). […] Activation of cdc2 (cdk1) by de-phosphorylation of tyrosine 15 is required for G2/M transition. […]

[3] = system: panel of human cancer cell lines; assay: MTT cell cytotoxicity assay, cell line panel; assay type: cell-based; conditions: cultured cancer cells
Procedure: Cell survival was determined using the MTT assay (3-[4,5-dimethylthiazol-2-yl]-2,5-diphenyltetrazolium bromide; Sigma, Saint-Quentin Fallavier, France). The conversion of yellow water-soluble tetrazolium MTT into purple insoluble formazan is catalyzed by mitochondrial dehydrogenases and used to estimate the number of viable cells. In brief, cells were seeded in 96-well tissue culture plates at a density of 2×10^3 cells/well. After 72 h drug exposure and 48 h wash-out, cells were incubated with 0.4 mg/ml MTT for 4 hours at 37° C. After incubation, the supernatant was discarded, insoluble formazan precipitates were dissolved in 0.1 ml of DMSO and the absorbance was measured at 560 nm by use of a microplate reader (Thermo, France). […] IC50's were determined as the halves of maximal inhibitory drug concentration for each cell line.
The antiproliferative effects of OTX-008 and anginex were assessed using MTT assay in a panel of human cancer cell lines of human origins expressing various levels of Lgals-1 mRNA and galectin-1 protein expressions (Supplementary Table 1). […] No correlation between mRNA expressions of galectin-2, galectin-3, and galectin-8 as well as semaphorin-3A, semaphorin-3B, neuropilin-1, VEGFR1-3, VEGFA-D, and PDGFRa&P3 and sensitivity to OTX-008 were detected in the panel.

B16 melanoma = conditions: syngeneic mouse B16 melanoma model; cited from earlier work
[4] = system: human ovarian carcinoma MA148 xenografts; conditions: cited from earlier work

T1 sequence (P09382 whole entry): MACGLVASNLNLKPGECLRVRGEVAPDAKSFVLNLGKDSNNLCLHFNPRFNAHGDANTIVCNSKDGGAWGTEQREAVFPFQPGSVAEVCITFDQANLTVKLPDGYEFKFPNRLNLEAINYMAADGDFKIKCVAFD

Row | Molecule | SQ20B cell proliferation, exogenous agent alone (SQ20B cells [1]) | invasion of SQ20B cells, agent alone (SQ20B cells [2]) | further results
1 | galectin-1: Recombinant galectin-1 purchased from R&D Systems | had not effects | enhance invasion | –
2 | OC[C@H]1O[C@@H](O[C@H]2[C@H](O)[C@@H](O)C(O)O[C@@H]2CO)[C@H](O)[C@@H](O)[C@H]1O (stereo partly drawn) [lactose, reference compound] | significant inhibition of cellular proliferation | – | invasion, lactose combined with OTX-008 (SQ20B cells [2]; SQ20B, 200 ng/ml lactose with 3 μM OTX-008): prevents the inhibition of invasion induced by OTX-008
3 | CC(C)C[C@H](NC(=O)[C@H](Cc1ccccc1)NC(=O)c1cnccn1)B(O)O [bortezomib, reference compound] | – | – | effect of proteasome inhibition on OTX-008-induced galectin-1 decrease (galectin-1): counteracts the inhibitory effects of OTX-008 on galectin-1 expression
4 | N#CC(=C(/N)Sc1ccccc1N)/C(C#N)=C(/N)Sc1ccccc1N [UO126, reference compound] | – | neither impact cellular invasion alone | OTX-008-mediated cdc2 phosphorylation after UO126 pretreatment (cdc2 (tyrosine 15)): inhibited the increase of cdc2 phosphorylation
5 | anginex | – | – | antiproliferative effects (MTT) [3]: limited effects; antitumor activity (B16 melanoma): antitumor activity; antitumor activity [4]: antitumor activity
6 | B1 | concentration-dependent inhibition of cellular proliferation | enhance invasion | –

Reference: patent US20140243415A1, “COMPOUNDS INHIBITING GALECTIN-1 EXPRESSION, CANCER CELL PROLIFERATION, INVASION, AND TUMORIGENESIS” (ONCOETHIX SA, priority 2011, published 2014)
